In patent US12459939B2 (SHANGHAI RINGENE BIOPHARMA CO., LTD., priority 2019, dated 2025):

Key:
[1] = Metabolic stability in mouse liver microsomes; format: in vitro ADME; settings: liver microsomes 0.5 mg/mL, NADPH, 1 μM compound, read-out: Mouse microsomal T1/2
Protocol: (§1) (1) Metabolic stability test: 150 μL of liver microsomes (final concentration was 0.5 mg/mL) were subjected to metabolic stability incubation, the system containing NADPH (final concentration was 1 mM), 1 μM of the test compound and the positive control midazolam or the negative control atenolol, the reaction was terminated with acetonitrile containing tinidazole at 0 min, 5 min, 10 min, and 30 min, respectively, then the mixture was vortexed for 10 min, and centrifuged at 15000 rmp for 10 min, 50 μL of the supernatant was injected into 96 well. The metabolic stability of the compound was calculated by measuring the relative reduction of the original drug. (See Table 3 for specific values)

[2] = Metabolic stability in rat liver microsomes; format: in vitro ADME; settings: liver microsomes 0.5 mg/mL, NADPH, 1 μM compound, read-out: Rat microsomal T1/2
Protocol: as §1

[3] = Metabolic stability in dog liver microsomes; format: in vitro ADME; settings: liver microsomes 0.5 mg/mL, NADPH, 1 μM compound, read-out: Dog microsomal T1/2
Protocol: as §1

[4] = system: MV4-11 cells; assay: Inhibition of proliferation of MV4-11 cells (CellTiter-Glo); format: cell-based; settings: Homo sapiens, 72 h
Protocol: Specific experimental steps: 1) Day 0: 96 inoculated cells were digested with trypsin and suspended in cell culture medium, the cell density was detected by an automatic cell counter and the cells were diluted with the culture medium to a suitable density, 100 μL of cell suspension was added to the 96-well plate, and the cell-free medium was used as a control well, and the wells were incubated in a 37° C., 5% CO2 cell incubator overnight; 2) Day 1: A total of 8 concentrations of the compound to be tested in the drug-treated cells were tested at 3-fold dilution, 10 μM was the starting assay concentration of the compound to be tested. Specific steps: 200× compound mother liquor was prepared, the compound was diluted with culture medium to a final concentration of […], that is, 3 μL of 200× compound was added to 197 μL of culture medium, 50 μL diluted compound was added to each well of the 96-well plate, and placed at 37° C., 5% CO2 cell culture incubator for 72 h; 3) Day 4: Cell viability detection: 96-well cell plate was first equilibrated to room temperature, 40 μL of CellTiter-Glo® reagent was added to each well, mixed on a shaker for 2 minutes to fully lyse the cells, incubated at room temperature for 10 minutes to stabilize the luminescence signal, and the luminescence value was read by the Envision microplate reader; 4) data processing was performed by GraphPad Prism 5.0 software to analyze the data, and nonlinear S-curve regression was used to fit the data to obtain a dose-effect curve, and from which the ICso value was calculated. Inhibition rate %=(DMSO treated cell wells−compound treated cell wells)/(DMSO treated cell wells−cell free medium wells)×100. The ICso value was obtained by the four-parameter regression method using the random software in the microplate reader. (See Table 2 for specific values)

[5] = In vivo pharmacokinetics in mice; settings: male, Balb c, mouse, plasma, po, 5 mg/kg
Protocol: Six male SPF-grade SD rats or Balb c mice (Shanghai B&K laboratory animals) were divided into two groups and the test compounds were configured into suitable solutions or suspensions; one group was administered intravenously and one group was administered orally. Blood was collected by jugular vein puncture, and each sample was collected about 0.2 mL/time point, heparin sodium was used for anticoagulation, the blood collection time points were as follows: before administration and 5, 15 and 30 minutes, 1, 2, 4, 6, 8 and 24 h after administration, the blood sample was collected and placed on ice, centrifuged to separate the plasma (centrifugation conditions: 8000 rpm, 6 minutes, 2-8° C.), and the collected plasma was stored at −80° C. before analysis. The plasma samples were analyzed by LC-MS/MS.
According to the blood drug concentration data of the drug, the pharmacokinetic calculation software WinNonlin5.2 non-compartmental model was used to calculate the pharmacokinetic parameters AUC0-t, AUC0-∞, MRT0-∞, Cmax, Tmax, T1/2 and Vd and other parameters and their mean and standard deviation. In addition, the bioavailability (F) was calculated by the following formula.
For samples with a concentration lower than the lower limit of quantification, when calculating the pharmacokinetic parameters, the samples sampled before reaching Cmax should be calculated as zero, and samples sampled after reaching Cmax should be calculated as unquantifiable (BLQ).

[6] = system: MV 4-11 transplanted tumor; assay: Growth inhibition of MV 4-11 transplanted tumor in nude mice; format: in vivo; settings: dose of 15 mpk, oral, daily
Protocol: The tumor tissue in vigorous growth stage was cut into about 1.5 mm^3 and inoculated subcutaneously in the right armpit of nude mice under sterile conditions. The diameter of subcutaneous transplanted tumor in nude mice was measured with vernier caliper, and the animals were randomly divided into groups when the average tumor volume was about 130 mm^3. […] During the whole experiment, the diameter of the transplanted tumor was measured twice a week, and the weight of mice was weighed at the same time. The calculation formula of tumor volume (TV) was: TV=½×a×b^2, wherein a and b represent the length and width respectively. The relative tumor volume (RTV) was calculated according to the measurement results, and the calculation formula was: RTV=VT/v0. Wherein VO is the tumor volume measured during the administration in cage (i.e., d0), and Vt is the tumor volume at each measurement.

[7] = molecular target: T1, BRD4-BD1 (Homo sapiens, UniProt O60885); assay: BRD4 AlphaScreen determination (BD1); format: binding; settings: AlphaScreen, protein binding inhibition; read-out: BRD4-BD1 IC50
T1 construct: purchased ReactionBiologyCorp; (RBC)
Protocol: (§2) (1) 1× Assay buffer was prepared according to the kit requirements of ReactionBiologyCorp. (RBC). (2) Compound concentration gradient preparation: the test compounds were tested at final concentrations starting at 10 μM, with 10 concentrations at 3-fold dilution and single well test was set for each concentration. The positive control compound(+)-JQ-1 was tested at final concentrations starting at 1 μM, with 10 concentrations at 3-fold dilution, and duplicated well test was set for each concentration. The solution was gradient diluted to the corresponding 1000-fold final concentration in a 384-well Source plate, and then 20 nL of the solution was transferred to the 384-well reaction plate with Echo550 to be measured. 20 nL of 100% DMSO was transferred to the Max well, and the highest concentration of the positive compounds were transferred to the Min wells. […] (6) 5 μL of 4× peptide solution was added to each well of the reaction plate, centrifuged at 1000 rpm for 1 min. (7) 10 μL of the assay solution was added, centrifuged at 1000 rpm for 60 seconds, the solution was mixed with gentle shaking, and incubated at room temperature for 60 minutes. (8) Reading with EnVision. (9) The IC50 values of the compounds for protein binding inhibition was obtained by fitting the dose-effect curve with the analytical software GraphPad Prism 5. (See Table 1 for specific values)

[8] = molecular target: T2, BRD4-BD2 (Homo sapiens, UniProt O60885); assay: BRD4 AlphaScreen determination (BD2); format: binding; settings: AlphaScreen, protein binding inhibition; read-out: BRD4-BD2 IC50
T2 construct: purchased ReactionBiologyCorp; (RBC)
Protocol: as §2

[9] = system: most AML cell lines and prostate cancer cell lines; assay: Proliferation inhibition of different cell lines: AML and prostate cancer lines; format: cell-based; settings: read-out: proliferation inhibitory activity IC50
Protocol: (§3) The proliferation inhibitory activity of some of the embodiment compounds against different cell lines such as LNCAP (+R1881), SKM-1, 22RV1, DU145, MOLM13, MDA-PCA-2b, KASUMI 1, THP-1, KG-1, IEC6, H1299, etc., was tested using similar methods in test embodiment 2 and in the literature.

[10] = system: LNCAP, SKM-1, MOLM13, KASUMI 1, THP-1, KG-1; assay: Proliferation inhibition of different cell lines: most sensitive lines; format: cell-based; settings: some cell lines such as LNCAP, read-out: proliferation inhibitory activity IC50
Protocol: as §3

[11] = system: IEC6; assay: Proliferation inhibition of IEC6 cells; format: cell-based; settings: Rattus norvegicus, IEC-6; IEC6 cell line; read-out: proliferation inhibitory activity IC50
Protocol: as §3

[12] = system: H1299; assay: Proliferation inhibition of H1299 cells; format: cell-based; settings: Homo sapiens, NCI-H1299; H1299 cell line; read-out: proliferation inhibitory activity IC50
Protocol: as §3

IC50 [7] [nM] | IC50 [8] [nM] | IC50 [9] [nM] | IC50 [10] [nM] | IC50 [12] [nM] | Structure (SMILES) | half-life at 1 μM [1] [min] | half-life at 1 μM [2] [min] | half-life at 1 μM [3] [min] | IC50 [4] [nM] | bioavailability [5] [%] | inhibitory rate (growth of transplanted tumor) [6] | IC50 [11] [nM]
 |  |  |  |  | CCNC(=O)c1cc2c(=O)n(C)cc(-c3cc(C(C)(C)O)ccc3Oc3c(C)cc(F)cc3C)c2[nH]1 | 170 | 168 | 195 |  |  |  | 
 |  |  |  |  | CCNC(=O)c1cc2c(-c3cc(C(C)(C)O)ccc3Oc3c(C)cc(F)cc3C)cn(C)c(=O)c2[nH]1 [compound 1, N-ethyl-4-(2-(4-fluoro-2,6-dimethylphenoxy)-5-(2-hydroxyprop-2-yl)phenyl)-6-methyl-7-oxo-6,7-dihydro-1H-pyrrolo[2,3-c]pyridine-2-amide, reference compound] | 19 | 62 | 68 | 32 | 25 | about 60% | 
109 | 0.57 | < 1000 | < 100 | > 1000 | Cc1cc(F)cc(C)c1Oc1ccc(C(C)(C)O)cc1-c1cn(C)c(=O)c2cc(C(=O)NCC(F)F)[nH]c12 [Embodiment 11, N-(2,2-difluoroethyl)-7-(2-(4-fluoro-2,6-dimethylphenoxy)-5-(2-hydroxyprop-2-yl)phenyl)-5-methyl-4-oxo-4,5-dihydro-1H-pyrrolo[3,2-c] pyridine-2-amide] | 39 | 77 | 403 | 20.4 |  |  | > 1000
